Patent US10517889B2, “Modulators of SMAD7 expression” (Ionis Pharmaceuticals, Inc., priority 2017, dated 2019)
Strand notation (5' to 3'): a small letter for the sugar, then the base; units joined by * are phosphorothioate-linked, units joined directly phosphodiester-linked; [ ] holds rarer units or linkages, { } end groups; capitals alone tell only the bases. k = constrained ethyl (cEt); [5mC] = 5-methylcytosine; d = 2'-deoxy (DNA)

System: human SMAD7 mRNA
Experiment: Antisense inhibition of human SMAD7 mRNA expression in Hep3B cells by 3-10-3 cEt gapmers, 10,000 nM, electroporation (Example 2)
Type: cell-based
Settings: Hep3B cells, electroporation with 10,000 nM antisense oligonucleotide, approximately 24 hours, primer probe set RTS5062, relative to untreated control cells
How it was run: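 Hep3B cells (20,000/well) were electroporated with 10,000 nM 3-10-3 cEt gapmer (16-mer, phosphorothioate, 5-methylcytosines) and harvested after about 24 h. SMAD7 mRNA quantified by RT-qPCR with primer probe set RTS5062, normalized to total RNA by RiboGreen; percent inhibition relative to untreated cells.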

Q: Which “% inhibition of SMAD7 mRNA expression” value does the source give for “798948 (antisense kG*k[5mC]*kG*dA*dA*dA*d[5mC]*dA*dA*dA*dA*d[5mC]*dA*kG*kA*kA) [compound 798948]” here?
A: 56%

Q: With “798949 (antisense kA*kG*kA*dG*d[5mC]*dG*dA*dA*dA*d[5mC]*dA*dA*dA*kA*k[5mC]*kA) [compound 798949]” as the substance, how does the “% inhibition of SMAD7 mRNA expression” value read?
A: 55%

Q: With “798950 (antisense k[5mC]*kA*kA*dA*dG*dA*dG*d[5mC]*dG*dA*dA*dA*d[5mC]*kA*kA*kA) [compound 798950]” as the substance, how does the “% inhibition of SMAD7 mRNA expression” value read?
A: 0%

Q: For “798951 (antisense kT*k[5mC]*kT*d[5mC]*dA*dA*dA*dG*dA*dG*d[5mC]*dG*dA*kA*kA*k[5mC]) [compound 798951]”, which “% inhibition of SMAD7 mRNA expression” value is on record?
A: 37%

Q: “798952 (antisense kT*kA*kT*dT*dT*d[5mC]*dT*d[5mC]*dA*dA*dA*dG*dA*kG*k[5mC]*kG) [compound 798952]” was tested. Which “% inhibition of SMAD7 mRNA expression” value did it give?
A: 61%

Q: “798953 (antisense kA*kG*k[5mC]*dT*dA*dT*dT*dT*d[5mC]*dT*d[5mC]*dA*dA*kA*kG*kA) [compound 798953]” was tested. Which “% Inhibition” value did it give?
A: 17%

Q: “798955 (antisense kT*kT*k[5mC]*dA*dT*dA*dA*dG*d[5mC]*dT*dA*dT*dT*kT*k[5mC]*kT) [compound 798955]” was tested. Which “% Inhibition” value did it give?
A: 15%

Q: How did the “% Inhibition” value turn out when “798956 (antisense k[5mC]*kT*kT*dT*dT*d[5mC]*dA*dT*dA*dA*dG*d[5mC]*dT*kA*kT*kT) [compound 798956]” was run?
A: 22%

Q: How did the “% Inhibition” value turn out when “798957 (antisense kA*kT*kT*d[5mC]*dT*dT*dT*dT*d[5mC]*dA*dT*dA*dA*kG*k[5mC]*kT) [compound 798957]” was run?
A: 28%

Q: “798958 (antisense kA*kA*k[5mC]*dA*dA*dT*dT*d[5mC]*dT*dT*dT*dT*d[5mC]*kA*kT*kA) [compound 798958]” was tested. Which “% Inhibition” value did it give?
A: 0%

Q: “798959 (antisense k[5mC]*k[5mC]*k[5mC]*dA*dA*d[5mC]*dA*dA*dT*dT*d[5mC]*dT*dT*kT*kT*k[5mC]) [compound 798959]” was tested. Which “% Inhibition” value did it give?
A: 36%

Q: For “798960 (antisense kA*k[5mC]*k[5mC]*d[5mC]*d[5mC]*d[5mC]*dA*dA*d[5mC]*dA*dA*dT*dT*k[5mC]*kT*kT) [compound 798960]”, which “% Inhibition” value is on record?
A: 39%

Q: For “798961 (antisense kA*kA*kA*dA*d[5mC]*d[5mC]*d[5mC]*d[5mC]*d[5mC]*dA*dA*d[5mC]*dA*kA*kT*kT) [compound 798961]”, which “% Inhibition” value is on record?
A: 0%

Q: “798962 (antisense kT*kT*k[5mC]*d[5mC]*dA*dA*dA*dA*dA*dA*dA*d[5mC]*d[5mC]*k[5mC]*k[5mC]*k[5mC]) [compound 798962]” was tested. Which “% Inhibition” value did it give?
A: 2%

Q: With “798963 (antisense kT*kT*k[5mC]*dT*dT*d[5mC]*d[5mC]*dA*dA*dA*dA*dA*dA*kA*k[5mC]*k[5mC]) [compound 798963]” as the substance, how does the “% inhibition of SMAD7 mRNA expression” value read?
A: 13%

Q: Which “% inhibition of SMAD7 mRNA expression” value does the source give for “798964 (antisense k[5mC]*k[5mC]*k[5mC]*dT*dT*d[5mC]*dT*dT*d[5mC]*d[5mC]*dA*dA*dA*kA*kA*kA) [compound 798964]” here?
A: 32%

Q: Which “% inhibition of SMAD7 mRNA expression” value does the source give for “798965 (antisense kT*kG*k[5mC]*d[5mC]*d[5mC]*d[5mC]*dT*dT*d[5mC]*dT*dT*d[5mC]*d[5mC]*kA*kA*kA) [compound 798965]” here?
A: 43%

Q: For “798966 (antisense kT*kA*k[5mC]*d[5mC]*dT*dG*d[5mC]*d[5mC]*d[5mC]*d[5mC]*dT*dT*d[5mC]*kT*kT*k[5mC]) [compound 798966]”, which “% inhibition of SMAD7 mRNA expression” value is on record?
A: 35%

Q: How did the “% inhibition of SMAD7 mRNA expression” value turn out when “798967 (antisense kT*k[5mC]*kA*dT*dA*d[5mC]*d[5mC]*dT*dG*d[5mC]*d[5mC]*d[5mC]*d[5mC]*kT*kT*k[5mC]) [compound 798967]” was run?
A: 40%

Q: For “798968 (antisense k[5mC]*kG*kA*dT*d[5mC]*dA*dT*dA*d[5mC]*d[5mC]*dT*dG*d[5mC]*k[5mC]*k[5mC]*k[5mC]) [compound 798968]”, which “% inhibition of SMAD7 mRNA expression” value is on record?
A: 62%

Q: For “798969 (antisense kT*kG*k[5mC]*d[5mC]*dG*dA*dT*d[5mC]*dA*dT*dA*d[5mC]*d[5mC]*kT*kG*k[5mC]) [compound 798969]”, which “% inhibition of SMAD7 mRNA expression” value is on record?
A: 48%
